Measurements as given in ChEMBL document CHEMBL4616584, “Designing around Structural Alerts in Drug Discovery” (J Med Chem, 2020).

Assays:
[1] = Half life of the compound in buffer; assay type: physicochemical
[2] = Covalent protein binding in human liver microsomes assessed per mg protein at 50 uM after 60 mins in presence of NADPH by LC-MS/MS method; assay type: ADME, Microsome; settings: 1 h
in vitro = settings: human, platelets
[3] = Half life in potassium phosphate buffer by liquid chromatography-tandem mass spectrometry; assay type: physicochemical
[4] = Half life of the compound; assay type: physicochemical
[5] = Covalent protein binding in human liver microsomes assessed per mg protein at 10 uM preincubated for 5 mins followed by UDPGA addition and measured after 60 mins by liquid scintillation counting method; assay type: ADME, Microsome; settings: 1 h
[6] = Half life of the compound at pH 7.4; assay type: physicochemical

Cc1cc(CC(=O)O)n(C)c1C(=O)c1ccc(Cl)cc1 [ZOMEPIRAC]
half-life [1]: 30 min

Cc1cc(OCCCS(C)(=O)=O)cc(C)c1-c1cccc(COc2ccc3c(c2)OC[C@H]3CC(=O)O[C@H]2O[C@@H](C(=O)O)[C@H](O)[C@H](O)[C@@H]2O)c1
half-life [1]: 30 min

Cc1cnc(NC(=O)C2=C(O)c3ccccc3S(=O)(=O)N2C)s1 [MELOXICAM]
PB [2]: 3.6 pmol

COC(=O)[C@H](c1ccccc1Cl)N1CCc2sccc2C1 [CLOPIDOGREL]
fraction unbound (in vitro): 0.98

Cc1cccc(Nc2ccccc2C(=O)O)c1C [MEFENAMIC ACID]
half-life [3]: 990 min

CC(C)Cc1ccc(CC(=O)O)cc1 [IBUFENAC]
half-life [4]: 66 min | PB [5]: 1000 to 8600 pmol

CN1C(C(=O)Nc2nccs2)=C(O)c2ccccc2S1(=O)=O [SUDOXICAM]
PB [2]: 1.4 pmol

CCCN(CCC)S(=O)(=O)c1ccc(C(=O)O)cc1 [PROBENECID]
half-life [3]: 16.2 min

Cc1ccc(Cl)c(Nc2ccccc2C(=O)O)c1Cl [MECLOFENAMIC ACID]
half-life [3]: 1690 min

NC(=O)OCC(C=O)c1ccccc1 (configuration not stated)
half-life [6]: < 0.5 min

CC(C)Cc1ccc(C(C)C(=O)O)cc1 (configuration not stated) [IBUPROFEN]
PB [5]: 1000 to 8600 pmol
